# Experimental data as given in patent US10112929B2, “Lactams as inhibitors of rock” (BRISTOL-MYERS SQUIBB COMPANY, priority 2015, dated 2018).
# Where a name gives a salt, the structure may show the parent alone.
# Target: ROCK2 (Homo sapiens (Human), UniProt O75116)
# Test: biochemical
# 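Also: rho kinase enzyme reaction halted with EDTA, phospho- and non-phospho peptide separated for read-out, kinase activity inhibition derived across a dose-response series, DMSO under 2%.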
# Chain of ROCK2 (O75116 whole entry, species assumed): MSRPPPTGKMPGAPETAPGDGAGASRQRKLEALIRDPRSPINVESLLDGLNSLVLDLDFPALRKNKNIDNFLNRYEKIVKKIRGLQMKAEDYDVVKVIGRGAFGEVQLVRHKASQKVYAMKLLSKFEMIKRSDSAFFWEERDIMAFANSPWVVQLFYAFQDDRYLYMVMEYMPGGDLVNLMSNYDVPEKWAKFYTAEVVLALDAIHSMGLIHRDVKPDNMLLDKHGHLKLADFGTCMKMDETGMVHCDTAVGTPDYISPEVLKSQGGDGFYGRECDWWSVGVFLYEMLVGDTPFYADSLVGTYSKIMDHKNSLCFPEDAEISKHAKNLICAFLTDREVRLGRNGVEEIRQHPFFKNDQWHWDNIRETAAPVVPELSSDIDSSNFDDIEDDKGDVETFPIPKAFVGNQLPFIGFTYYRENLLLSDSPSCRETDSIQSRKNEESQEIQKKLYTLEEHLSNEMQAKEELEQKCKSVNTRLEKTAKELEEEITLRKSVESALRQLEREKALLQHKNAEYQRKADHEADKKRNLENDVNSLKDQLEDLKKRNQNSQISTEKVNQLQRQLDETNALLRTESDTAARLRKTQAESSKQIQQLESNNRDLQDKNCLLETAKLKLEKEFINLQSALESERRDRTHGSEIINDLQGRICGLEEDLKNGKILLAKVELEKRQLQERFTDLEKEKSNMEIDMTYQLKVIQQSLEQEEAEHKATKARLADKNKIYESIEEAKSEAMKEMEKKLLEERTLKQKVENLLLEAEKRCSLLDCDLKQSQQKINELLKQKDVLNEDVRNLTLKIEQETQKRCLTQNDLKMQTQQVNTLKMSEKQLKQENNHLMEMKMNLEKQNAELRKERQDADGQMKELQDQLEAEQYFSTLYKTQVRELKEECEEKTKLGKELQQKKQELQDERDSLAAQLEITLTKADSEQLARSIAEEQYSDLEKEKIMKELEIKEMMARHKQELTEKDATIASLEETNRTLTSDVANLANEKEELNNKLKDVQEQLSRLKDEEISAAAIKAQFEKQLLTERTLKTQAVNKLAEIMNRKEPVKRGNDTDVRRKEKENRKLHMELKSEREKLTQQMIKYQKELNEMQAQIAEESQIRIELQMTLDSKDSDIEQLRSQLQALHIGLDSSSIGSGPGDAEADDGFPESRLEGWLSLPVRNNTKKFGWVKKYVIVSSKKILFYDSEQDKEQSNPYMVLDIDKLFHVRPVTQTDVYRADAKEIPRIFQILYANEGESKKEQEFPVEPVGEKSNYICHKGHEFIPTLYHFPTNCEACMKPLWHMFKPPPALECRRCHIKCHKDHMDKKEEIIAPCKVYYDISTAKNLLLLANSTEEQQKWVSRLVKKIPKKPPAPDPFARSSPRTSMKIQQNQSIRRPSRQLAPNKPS
row,Structure (SMILES),IC50 [nM]
1,"COc1cc(NC2CCN(c3ccc(-c4cn[nH]c4)c(OC)c3)C2=O)ccc1F (single isomer, unassigned) [Example 155, 3-((4-fluoro-3-methoxyphenyl)amino)-1-(3-methoxy-4-(1H-pyrazol-4-yl)phenyl) pyrrolidin-2-one]",< 10
2,"CNc1nc(N2CCC(Nc3cc(F)cc(OC)c3)C2=O)ccc1-c1cn[nH]c1 (single isomer, unassigned) [Example 251, 3-((3-fluoro-5-methoxyphenyl)amino)-1-(6-(methylamino)-5-(1H-pyrazol-4-yl)pyridin-2-yl)pyrrolidin-2-one]",10 to 100
3,"COc1c(F)cccc1NC1CCN(c2ccc(-c3cn[nH]c3)cc2F)C1=O (single isomer, unassigned) [Example 342, 3-((3-fluoro-2-methoxyphenyl)amino)-1-(2-fluoro-4-(1H-pyrazol-4-yl)phenyl) pyrrolidin-2-one]",100 to 2200
4,"COc1cc(N2CCC(Nc3cccc(NS(C)(=O)=O)c3)C2=O)ccc1-c1cn[nH]c1 (stereo not drawn) [Example 73, N-(3-((1-(3-methoxy-4-(1H-pyrazol-4-yl)phenyl)-2-oxopyrrolidin-3-yl)amino)phenyl)methanesulfonamide]",10 to 100
5,"COc1cccc(NC2CCN(c3ccc(-c4cn[nH]c4)c(Cl)c3)C2=O)c1 (single isomer, unassigned) [Example 165, 1-(3-chloro-4-(1H-pyrazo1-4-yl)phenyl)-3 ((3-methoxyphenyl)amino)pyrrolidin-2-one]",10 to 100
6,"COc1cccc(NC2CCN(c3ccc(-c4cn[nH]c4)c(OC)c3)C2=O)c1 (single isomer, unassigned) [Example 74, 1-(3-methoxy-4-(1H-pyrazol-4-yl)phenyl)-3-((3-methoxyphenyl)amino)pyrrolidin-2-one]",< 10
7,"COc1nc(N2CCC(N3CCC(OC)CC3)C2=O)ccc1-c1cn[nH]c1 (racemic) [Example 291, 1-(6-methoxy-5-(1H-pyrazol-4-yl)pyridin-2-yl)-3-(4-methoxypiperidin-1-yl)pyrrolidin-2-one hydrochloride]",100 to 2200
8,"COc1cccc(NC2CCN(c3ccc(-c4cn[nH]c4)c(F)c3F)C2=O)c1 (single isomer, unassigned) [Example 306, 1-(2,3-difluoro-4-(1H-pyrazol-4-yl)phenyl)-3-((3-methoxyphenyl)amino) pyrrolidin-2-one]",< 10
9,"CCc1cc(N2CCC(Nc3cccc(OC)c3)C2=O)ccc1-c1cn[nH]c1 (single isomer, unassigned) [Example 244, 1-(3-ethyl-4-(1H-pyrazol-4-yl)phenyl)-3-((3-methoxyphenyl)amino)pyrrolidin-2-one]",< 10
10,"CCOc1cc(N2CCC(Nc3cc(F)cc(OC)c3)C2=O)ccc1-c1cn[nH]c1 (single isomer, unassigned) [Example 37, 1-(3-ethoxy-4-(1H-pyrazol-4-yl)phenyl)-3-((3-fluoro-5-methoxyphenyl)amino)pyrrolidin-2-one]",100 to 2200
11,"COc1ccc(F)c(NC2CCN(c3ccc(-c4cn[nH]c4)c(C)c3)C2=O)c1 (single isomer, unassigned) [Example 364, 3-((2-fluoro-5-methoxyphenyl)amino)-1-(3-methyl-4-(1H-pyrazol-4-yl)phenyl) pyrrolidin-2-one]",10 to 100
12,"COc1cc(NC2CCN(c3ccc(-c4cn[nH]c4)c(F)c3)C2=O)ccc1F (single isomer, unassigned) [Example 332, 3-((4-fluoro-3-methoxyphenyl)amino)-1-(3-fluoro-4-(1H-pyrazol-4-yl)phenyl) pyrrolidin-2-one]",< 10
13,"COc1cccc(NC2CCN(c3ccc(-c4cn[nH]c4)c(OC(F)F)c3)C2=O)c1 (single isomer, unassigned) [Example 114, 1-(3-(difluoromethoxy)-4-(1H-pyrazol-4-yl)phenyl)-3-((3-methoxyphenyl)amino)pyrrolidin-2-one]",10 to 100
14,"COc1cccc(NC2CCN(c3ccc(-c4ccnc(N)n4)c(C)n3)C2=O)c1 (single isomer, unassigned) [Example 122, 1-(5-(2-aminopyrimidin-4-yl)-6-methylpyridin-2-yl)-3-((3-methoxyphenyl)amino) pyrrolidin-2-one]",10 to 100
15,"COc1cc(NC2CCN(c3cc(F)c(-c4cn[nH]c4)cc3F)C2=O)ccc1F (single isomer, unassigned) [Example 349, 1-(2,5-difluoro-4-(1H-pyrazol-4-yl)phenyl)-3-((4-fluoro-3-methoxyphenyl)amino)pyrrolidin-2-one]",10 to 100
16,"COc1cc(F)cc(NC2CCN(c3cc(F)c(-c4cn[nH]c4)cc3F)C2=O)c1 (single isomer, unassigned) [Example 351, 1-(2,5-difluoro-4-(1H-pyrazol-4-yl)phenyl)-3-((3-fluoro-5-methoxyphenyl)amino)pyrrolidin-2-one]",10 to 100
17,"COc1nc(N2CCC(N3CCc4ccccc4C3)C2=O)ccc1-c1cn[nH]c1 (racemic) [Example 277, 3-(3,4-dihydroisoquinolin-2(1H)-yl)-1-(6-methoxy-5-(1H-pyrazol-4-yl)pyridin-2-yl)pyrrolidin-2-one]",100 to 2200
18,"COc1nc(N2CCC(N3CC[C@H](NC(C)=O)C3)C2=O)ccc1-c1cn[nH]c1 (mixture of isomers) [Example 294, N-((3S)-1′-(6-methoxy-5-(1H-pyrazol-4-yl)pyridin-2-yl)-2′-oxo-[1,3′-bipyrrolidin]-3-yl)acetamide]",100 to 2200
19,"COc1nc(N2CCC(N3CCS(=O)(=O)CC3)C2=O)ccc1-c1cn[nH]c1 (racemic) [Example 280, 3-(1,1-dioxidothiomorpholino)-1-(6-methoxy-5-(1H-pyrazol-4-yl)pyridin-2-yl)pyrrolidin-2-one]",10 to 100
20,"CCc1nc(N2CCC(Nc3ccc(F)c(OCC4CC4)c3)C2=O)ccc1-c1cn[nH]c1 (single isomer, unassigned) [Example 211, 3-((3-(cyclopropylmelhoxy)-4-fluorophenyl)amino)-1-(6-ethyl-5-(1H-pyrazol-4-yl)pyridin-2-yl)pyrrolidin-2-one]",10 to 100
21,"COc1c(F)cccc1NC1CCN(c2ccc(-c3cn[nH]c3)c(F)c2)C1=O (single isomer, unassigned) [Example 336, 3-((3-fluoro-2-methoxyphenyl)amino)-1-(3-fluoro-4-(1H-pyrazol-4-yl)phenyl) pyrrolidin-2-one]",< 10
22,"COc1cc(N2CCC(Nc3cc(F)cc(F)c3)C2=O)ccc1-c1cn[nH]c1 (single isomer, unassigned) [Example 145, 3-((3,5-difluorophenyl)amino)-1-(3-methoxy-4-(1H-pyrazol-4-yl)phenyl) pyrrolidin-2-one]",10 to 100
23,"COc1nc(N2CCC(Nc3cccc(OC(C)C)c3)C2=O)ccc1-c1cn[nH]c1 (racemic) [Example 267, 3-((3-isopropoxyphenyl)amino)-1-(6-methoxy-5-(1H-pyrazol-4-yl)pyridin-2-yl)pyrrolidin-2-one]",10 to 100
24,"COc1ccc(F)c(OC2CCN(c3ccc(-c4cn[nH]c4)cc3)C2=O)c1 (stereo not drawn) [Example 111, 1-(4-(1H-pyrazol-4-yl)phenyl)-3-(2-fluoro-5-methoxyphenoxy)pyrrolidin-2-one]",10 to 100
25,"COc1ccc(Cl)c(NC2CCN(c3ccc(-c4cn[nH]c4)c(OC)n3)C2=O)c1 (racemic) [Example 261, 3-((2-chloro-5-methoxyphenyl)amino)-1-(6-methoxy-5-(1H-pyrazol-4-yl)pyridin-2-yl)pyrrolidin-2-one]",10 to 100

# Second part, the compound after the results:
row,IC50 [nM],Structure (SMILES)
1,100 to 2200,"COc1cccc([C@@H](C)NC2CCN(c3ccc(-c4cn[nH]c4)cc3)C2=O)c1 (stereo partly drawn) [Example 60, 1-(4-(1H-pyrazol-4-yl)phenyl)-3-(((R)-1-(3-methoxyphenyl)ethyl)amino)pyrrolidin-2-one, TFA]"
2,100 to 2200,"O=C1C(Cc2c(F)cccc2F)CCN1c1ccc(-c2cn[nH]c2)cc1 (stereo not drawn) [Example 94, 1-(4-(1H-pyrazol-4-yl)phenyl)-3-(2,6-difluorobenzyl)pyrrolidin-2-one]"
3,10 to 100,"O=C1C(Nc2cccc(OCC(F)F)c2)CCN1c1ccc(-c2cn[nH]c2)cc1 (single isomer, unassigned) [Example 238, 1-(4-(1H-pyrazol-4-yl)phenyl)-3-((3-(2,2-difluoroethoxy)phenyl)amino)pyrrolidin-2-one]"
4,10 to 100,"O=C1C(Nc2cccc(OC(F)F)c2)CCN1c1ccc(-c2cn[nH]c2)cc1 (single isomer, unassigned) [Example 231, 1-(4-(1H-pyrazol-4-yl)phenyl)-3-((3-(difluoromethoxy)phenyl)amino) pyrrolidin-2-one]"
5,100 to 2200,"COc1cccc(N(C)C2CCN(c3ccc(-c4cn[nH]c4)cc3)C2=O)c1 (single isomer, unassigned) [Example 31, 1-(4-(1H-pyrazol-4-yl)phenyl)-3-((3-methoxyphenyl)(methyl)amino)pyrrolidin-2-one]"
6,10 to 100,"O=C1[C@H](N2CCc3ccccc32)CCN1c1ccc(-c2cn[nH]c2)cc1 [Example 393, (R)-1-(4-(1H-pyrazol-4-yl)phenyl)-3-(indolin-1-yl)pyrrolidin-2-one]"
7,10 to 100,"CC(=O)Nc1cccc(NC2CCN(c3ccc(-c4cn[nH]c4)cc3)C2=O)c1 (stereo not drawn) [Example 391, N-(3-((1-(4-(1H-pyrazol-4-yl)phenyl)-2-oxopyrrolidin-3-yl)amino)phenyl)acetamide]"
8,10 to 100,"O=C1C(Nc2ccccc2)CCN1c1ccc(-c2cn[nH]c2)cc1 (stereo not drawn) [Example 58, 1-(4-(1H-pyrazol-4-yl)phenyl)-3-(phenylamino)pyrrolidin-2-one]"
9,< 10,"O=C1C(Nc2cccc(OC(F)F)c2)CCN1c1ccc(-c2cn[nH]c2)cc1 (stereo not drawn) [Example 7, 1-(4-(1H-pyrazol-4-yl)phenyl)-3-((3-(difluoromethoxy)phenyl)amino)pyrrolidin-2-one]"
10,10 to 100,"O=C1C(Nc2nc3ccccc3[nH]2)CCN1c1ccc(-c2cn[nH]c2)cc1 (single isomer, unassigned) [Example 56, 3-((1H-benzo[d]imidazol-2-yl)amino)-1-(4-(1H-pyrazol-4-yl)phenyl)pyrrolidin-2-one]"
11,< 10,"COc1cc(F)cc(NC2CCN(c3ccc(-c4cn[nH]c4)cc3)C2=O)c1 (stereo not drawn) [Example 3, 1-(4-(1H-pyrazol-4-yl)phenyl)-3-((3-fluoro-5-methoxyphenyl)amino)pyrrolidin-2-one]"
